One experiment deals with TE-13 cells. Nature of the experiment: Eotaxin-3 protein released in culture supernatant, ELISA. The conditions noted are these: IL-13 100 ng/mL for 24 hours. It is filed as cell-based, human. The procedure: (§1) Eotaxin-1, 2 and 3 Duo set ELISA were performed according to the manufacturer's instruction (R&D) and as previously described Blanchard, C. et al., (2006) J. Clin. Invest. 116: 536-547. IL-13 Quantikine® Kit (R&D) was used to quantify IL-13 protein levels. The detection limits were respectively […] for eotaxins-1, -2, -3 and IL-13, respectively. The optical density of each well was read at a wavelength of 450 nm.
(ELISA stands for enzyme-linked immunosorbent assay.)

The test system of experiment [1] is TE-7 cells. Described as above. It is filed as cell-based, human. The conditions noted are these: IL-13 100 ng/mL for 24 hours. The procedure: as §1
In experiment [2] the test system is primary esophageal keratinocytes from EE patients. Nature of the experiment: IL-13-induced eotaxin expression ex vivo, real-time PCR. Type of experiment: cell-based, human. From the text:
(§2) Briefly, biopsies were digested with trypsin twice.

In experiment [3] the test system is TE-7 esophageal cell line. The experiment is described as follows: Eotaxin-3 mRNA expression after IL-13 stimulation, real-time PCR. Type of experiment: cell-based, human. To be noted: TE-7 cells, IL-13 100 ng/mL.
For experiment [4], the system named is TE-6 esophageal cell line. Described as above. It is filed as cell-based, human. The conditions noted are these: TE-6 cells, IL-13 100 ng/mL.
The test system of experiment [5] is primary esophageal keratinocytes from EE patients. Nature of the experiment: Eotaxin-3 protein release into supernatant ex vivo, ELISA. To be noted: IL-13 100 ng/mL. Type of experiment: cell-based, human. The procedure:
as §2, §1

In experiment [6] the test system is TE-13 esophageal cell line. The experiment is described as follows: Eotaxin-3 mRNA expression after IL-13 stimulation, real-time PCR. Type of experiment: cell-based, human. The conditions noted are these: TE-13 cells, IL-13 100 ng/mL. On the technique in general: In qPCR the cycle at which signal appears reflects the starting amount.
Experiment [7] relates to TE-1 esophageal cell line. The description is as above. Type of experiment: cell-based, human. To be noted: TE-1 cells, IL-13 100 ng/mL.
In experiment [8] the test system is primary esophageal epithelial cells from patients with EE. Nature of the experiment: Global transcript-expression profile (microarray) of IL-13-stimulated primary cells. Type of experiment: cell-based, human. The procedure:
as §2
For each patient, one distal esophageal mucosal biopsy sample was immersed in RNA, later RNA stabilization reagent (Qiagen) and stored at 4 C. for <15 days. Total RNA was extracted using the RNAeasy Mini Kit (Qiagen) according to the manufacturer's recommendations. Hybridization to DNA microarray was performed by the MicroarrayCore at Cincinnati Children's Hospital Medical Center, as previously reported Blanchard, C. et al., (2006) J. Clin. Invest. 116: 536-547. The genome wide human Affymetrix U133A plus 2.0 Genechip® was used, and gene transcript levels were determined using algorithms in the Microarray Analysis Suite and GeneSpring software (Silicon Genetics) as previously described Blanchard, C. et al., (2006) J. Clin. Invest. 116: 536-547. […] Response to therapy was defined as <1 eosinophils/high power field (hpf) and no epithelial cell hyperplasia as described herein.
The list of differentially expressed transcripts was subjected to gene ontology analysis using DAVID (database for annotation, visualization and integrated discovery) and EASE (expression analysis systematic explorer), a web-based (hyper text transfer protocol davidabccncifcrfgov) application that allows access to a relational database of functional annotations.
Primary esophageal epithelial cells from the esophagi of patients with EE were cultured and stimulated with 100 ng/mL IL-13 for 48 hours to identify IL-13-induced esophageal epithelial genes. The mRNA was subjected to global transcript-expression profile analysis and normalized pair wise to unstimulated controls. Genes were filtered to fold change in biopsy specimens from patients with EE compared with those from healthy patients and IL-13 stimulated epithelial cells. A highly significant positive correlation (P<0.0001, Spearman) between modified genes in biopsy specimens from patients with EE and in IL-13-stimulated keratinocytes was observed (FIG. 4C). […] Blanchard, C. et al., (2006) J. Clin. Invest.

The subject of another experiment is human eotaxin-3 promoter. The experiment is described as follows: Eotaxin-3 promoter luciferase reporter in transfected TE-7 cells, IL-13 stimulation. Type of experiment: cell-based. The procedure: (§3) Plasmids were constructed or obtained as described before Blanchard, C. et al., (2005) Int. J. Biochem Cell Biol. 37: 2559-2573. Briefly, plasmid denoted P800, P500 and P100 contained respectively the first 800 by 500 by or 100 by of the human eotaxin-3 gene promoter (pEO3) subcloned into KpnI/HindIII-digested pGL3-Basic (Promega) as previously described Blanchard, C. et al., (2005) Int. J. Biochem. Cell Biol. 37: […]. Directed mutagenesis of the eotaxin-3 promoter was performed using Quickchange Kit from Stratagene according to the manufacturer's instructions using 2 primer sets: (first set) 5′-CCCAACCACAAGAAggtacc[…]-3′ and 5′-[…] ggtacc TTCTGTGGTTGGG-3′ which include a KpnI restriction site in the -89 TTCtctcgGAA STAT6 consensus site and (second set) 5′-GTAACTTAGTTCAG ggatcc […]-3′ and 5′-[…] ggatcc CTGAACTAAGTTAC-3′ which include a […] restriction site in the -698 TTCactgGAA STAT6 consensus site. The STAT6:ER plasmid was constructed in the pCDNA3 plasmid as previously described Kamogawa, Y. et al., (1998) J. Immunol. 161:1074-1077.
Approximately 10^4 TE-7 cells per well (24 well plate) were plated on day 1 and transfected by Lipofectamine™ reagent on day 2. Briefly, […] of reporter plasmids were mixed with 3 μl of Lipofectamine™ reagent in […] of serum-free RPMI medium. In all transfection experiments, a plasmid with a Renilla luciferase reporter gene under the control of a thymidine kinase promoter (pHRL-TK, […]) was used as an internal control. In co-transfection experiments with DNSTAT6 or pCDNA3-STAT6:ER (ER-estrogen receptor) plasmids, the empty vectors pCEFL HA or pCDNA3 were added to each set of transfections, respectively, to ensure that each well received the same amount of DNA. Complete medium (0.5 mL) was added and cells were incubated for 48 h to 72 h. The transfection mixture was then replaced with fresh complete medium for an additional 12 h period before cytokine treatment. […] Cells were then lysed and the Firefly and Renilla luciferase activities were measured in a luminometor (Microlite, Dynatec Laboratories, Inc) using the Dual Luciferase Reporter assay system (Promega) in accordance with the manufacturer's instructions.
Immunol. 42: 295-303; Hoeck, J. and Woisetschlager, M., (2001) J. Immunol. 167: 3216-3222; Yuan, Q. et al., (2006) Eur. J. Immunol. 36: 2700-2714. To determine the STAT6 element or elements involved in the eotaxin-3 stimulation observed in esophageal cell lines, the TE-7 cell line was transiently transfected with the full-length eotaxin luciferase reporter plasmid and truncated versions (FIG. 3). […] The TE-7 cell line was transfected with truncated promoter constructs or with a full-length promoter containing specific mutations within the STAT6 binding sites to map the relevant cis-acting promoter sequences (FIG. 3B).

Experiment [9] relates to TE-7 cells. Nature of the experiment: Eotaxin-3 mRNA stability with actinomycin-D. It is filed as cell-based, human.
A further experiment has as its system STAT6:ER. Nature of the experiment: Eotaxin-3 promoter luciferase reporter in TE-7 cells cotransfected with STAT6:ER. Type of experiment: cell-based, human. To be noted: TE-7 cotransfected with eotaxin-3 promoter construct and STAT6:ER, within 24 hours. The procedure:
as §3, with “The STAT6:ER plasmid was constructed in the pCDNA3 plasmid as previously described Kamogawa, Y. et al., (1998) J. Immunol. 161:1074-1077.” left out
Approximately 10^4 TE-7 cells per well (24 well plate) were plated on day 1 and transfected by Lipofectamine™ reagent on day 2. […] Cells were then lysed and the Firefly and Renilla luciferase activities were measured in a luminometor (Microlite, Dynatec Laboratories, Inc) using the Dual Luciferase Reporter assay system (Promega) in accordance with the manufacturer's instructions. […]
Background: In a reporter assay the amount or activity of a reporter protein is the signal.

[10] abbreviates: IL-13 100 ng/mL, 48 hours, P<0.05.

The values below come from US20120004205A1, “IL-13 INDUCED GENE SIGNATURE FOR EOSINOPHILIC ESOPHAGITIS” (Cincinnati Children's Hospital Medical Center, priority 2008, published 2012).

Consider “IL-13: cytokine Interleukin 13 (Preprotech) added to culture media to stimulate esophageal cells”, for which the “eotaxin-3 released in the supernatant” value in the experiment with TE-13 cells was found to be 0.55 ± 0.37 µg/mL. Further, the “eotaxin-3 released in the supernatant” value with TE-7 cells [1] is 2.5 ± 0.7 µg/mL. In addition, the “increase of eotaxin-3 mRNA expression” value in experiment [2] (48 hours after 10 ng/mL IL-13) is recorded as 1000 fold. Besides, in experiment [2] (48 hours after 100 ng/mL IL-13), the “increase of eotaxin-3 mRNA expression” value is 10.000 fold. Also, the “Eotaxin-3 mRNA expression increase” value in [3] is listed as 77 fold. Besides, the “Eotaxin-3 mRNA expression increase” value in experiment [4] is listed as 8 fold. For the same compound, the “release of eotaxin-3 protein into the supernatant” value in [5] was found to be 6.03 ± 0.8 ng/mL. Also, the “Eotaxin-3 mRNA expression increase” value in experiment [6] is given as 1007 fold. The “Eotaxin-3 mRNA expression increase” value in experiment [7] was found to be 4 fold. For the same compound, in experiment [8] (IL-13 100 ng/mL, 48 hours), the “genes downregulated by 2-fold or greater” value was 116 genes, the “genes downregulated by more than 1.5-fold” value is 553 genes, the “genes modified by 2-fold or greater” value amounted to 371 genes and the “genes modified by more than 1.5-fold” value turned out to be 1333 genes. In addition, in experiment [8] (IL-13 100 ng/mL, 48 hours), the “genes significantly modified compared with unstimulated cells (P<0.01)” value came out at 952 genes, the “genes significantly modified compared with unstimulated cells (P<0.05)” value came out at 4698 genes, the “genes upregulated by 2-fold or greater” value was determined as 255 genes and the “genes upregulated by more than 1.5-fold” value worked out at 780 genes. Besides, in [8] (setting [10]), the “IL-13-induced genes overlapping with the EE transcriptome” value stood at 126 genes and the “share of the EE transcriptome overlapped by IL-13-induced genes” value turned out to be 22%. Further, the “involucrin downregulation (microarray)” value in experiment [8] (IL-13-stimulated cells) was determined as 4.8 fold. In addition, in experiment [8] (IL-13-stimulated keratinocytes), the “TNFAIP6 expression (microarray)” value was “highly overexpressed”, the “cadherin-26 upregulation (microarray)” value came to 50 fold and the “eotaxin-3 upregulation (microarray)” value was found to be 279 fold. Further, the “eotaxin-1 and eotaxin-2 expression (microarray)” value in experiment [8] (IL-13-treated primary keratinocyte cultures) is listed as “not overexpressed”. In the experiment on human eotaxin-3 promoter (TE-7, IL-13 10 ng/mL), the “increase of luciferase activity, full-length reporter plasmid” value was 2.7+/−0.8 fold. In addition, in the experiment on human eotaxin-3 promoter (TE-7, IL-13 100 ng/mL), the “increase of luciferase activity, full-length reporter plasmid” value is 10.8+/−2.2 fold. In the experiment on human eotaxin-3 promoter (TE-7, after IL-13 stimulation), the “IL-13-induced luciferase activity, construct with mutated -89 binding site” value is “no increase in luciferase activity”; the “IL-13-induced promoter activity, construct P100 (truncated proximal STAT6 site)” value is given as “no activity”; the “IL-13-induced promoter activity, promoter containing 800 or 500 bp” value is listed as “full IL-13-induced activity”. Besides, in the experiment with TE-7 cells [9], the “stability of eotaxin-3 mRNA, IL-13 treated versus non-treated” value is recorded as “not significantly different”.

Consider `CC/C(=C(\c1ccc(O)cc1)c1ccc(OCCN(C)C)cc1)c1ccccc1` [4-hydroxytamoxifene], for which the “induction of eotaxin-3 promoter luciferase activity” value with STAT6:ER is on record as “significant (P<0.01) induction”.
